Source: ChEMBL document CHEMBL3297697, “Property- and structure-guided discovery of a tetrahydroindazole series of interleukin-2 inducible T-cell kinase inhibitors” (J Med Chem, 2014)
Converted amounts (≈) assume the structure as drawn.

Tests used:
[1] = Volume of distribution at steady state in Sprague-Dawley rat at 1 mg/kg, iv by LC-MS/MS analysis; assay type: ADME, organism-based; set-up: dose 1 mg/kg, route intravenous; conditions: in vivo, read-out: Vdss
[2] = Plasma protein binding in human; assay type: ADME, cell-free; conditions: read-out: PPB (converted)
[3] = Clearance in beagle dog at 1 mg/kg, iv by LC-MS/MS analysis; assay type: ADME, organism-based, Canis lupus familiaris; set-up: dose 1 mg/kg, route intravenous; conditions: in vivo
[4] = Half life in beagle dog at 1 mg/kg, iv by LC-MS/MS analysis; assay type: ADME, organism-based, Canis lupus familiaris; set-up: dose 1 mg/kg, route intravenous; conditions: in vivo
[5] = AUC in Sprague-Dawley rat at 5 mg/kg, po by LC-MS/MS analysis; assay type: ADME, organism-based; set-up: dose 5 mg/kg, route oral; conditions: plasma
[6] = target: Receptor-type tyrosine-protein kinase FLT3 (Homo sapiens) (UniProt P36888); assay: Inhibition of FLT3 (unknown origin) at 0.1 uM
[7] = Volume of distribution at steady state in BALB/c mouse at 1 mg/kg, iv by LC-MS/MS analysis; assay type: ADME, organism-based; set-up: dose 1 mg/kg, route intravenous; conditions: in vivo, read-out: Vdss
[8] = Clearance in Sprague-Dawley rat at 1 mg/kg, iv by LC-MS/MS analysis; assay type: ADME, organism-based; set-up: dose 1 mg/kg, route intravenous; conditions: in vivo
[9] = target: NT-3 growth factor receptor (Homo sapiens) (UniProt Q16288); assay: Inhibition of TRKC (unknown origin) at 0.1 uM
[10] = physchem; conditions: 1-octanol/phosphate buffer, pH 7.4, logD
[11] = Half life in Sprague-Dawley rat at 1 mg/kg, iv by LC-MS/MS analysis; assay type: ADME, organism-based; set-up: dose 1 mg/kg, route intravenous; conditions: in vivo
[12] = target: BDNF/NT-3 growth factors receptor (Homo sapiens) (UniProt Q16620); assay: Inhibition of TRKB (unknown origin) at 0.1 uM
[13] = Cmax in beagle dog at 5 mg/kg, po by LC-MS/MS analysis; assay type: ADME, organism-based, Canis lupus familiaris; set-up: dose 5 mg/kg, route oral; conditions: in vivo
[14] = physchem; conditions: PBS buffer, pH 7.4, Kinetic_solubility
[15] = target: High affinity nerve growth factor receptor (Homo sapiens) (UniProt P04629); assay: Inhibition of TRKA (unknown origin) at 0.1 uM
[16] = Clearance in BALB/c mouse at 1 mg/kg, iv by LC-MS/MS analysis; assay type: ADME, organism-based; set-up: dose 1 mg/kg, route intravenous; conditions: in vivo
[17] = Oral bioavailability in Sprague-Dawley rat at 5 mg/kg by LC-MS/MS analysis; assay type: ADME, organism-based; conditions: in vivo
[18] = Half life in BALB/c mouse at 1 mg/kg, iv by LC-MS/MS analysis; assay type: ADME, organism-based; set-up: dose 1 mg/kg, route intravenous; conditions: in vivo
[19] = Oral bioavailability in BALB/c mouse at 50 mg/kg by LC-MS/MS analysis; assay type: ADME, organism-based; conditions: in vivo
[20] = Cmax in Sprague-Dawley rat at 5 mg/kg, po by LC-MS/MS analysis; assay type: ADME, organism-based; set-up: dose 5 mg/kg, route oral; conditions: in vivo
[21] = Cmax in BALB/c mouse at 50 mg/kg, po by LC-MS/MS analysis; assay type: ADME, organism-based; set-up: dose 50 mg/kg, route oral; conditions: in vivo
[22] = AUC in beagle dog at 1 mg/kg, iv by LC-MS/MS analysis; assay type: ADME, organism-based, Canis lupus familiaris; set-up: dose 1 mg/kg, route intravenous; conditions: plasma
[23] = system: T1, Receptor-type tyrosine-protein kinase FLT3 (Homo sapiens), P36888 [D835Y]; assay: Inhibition of FLT3 D835Y mutant (unknown origin) at 0.1 uM
T1 sequence (whole entry): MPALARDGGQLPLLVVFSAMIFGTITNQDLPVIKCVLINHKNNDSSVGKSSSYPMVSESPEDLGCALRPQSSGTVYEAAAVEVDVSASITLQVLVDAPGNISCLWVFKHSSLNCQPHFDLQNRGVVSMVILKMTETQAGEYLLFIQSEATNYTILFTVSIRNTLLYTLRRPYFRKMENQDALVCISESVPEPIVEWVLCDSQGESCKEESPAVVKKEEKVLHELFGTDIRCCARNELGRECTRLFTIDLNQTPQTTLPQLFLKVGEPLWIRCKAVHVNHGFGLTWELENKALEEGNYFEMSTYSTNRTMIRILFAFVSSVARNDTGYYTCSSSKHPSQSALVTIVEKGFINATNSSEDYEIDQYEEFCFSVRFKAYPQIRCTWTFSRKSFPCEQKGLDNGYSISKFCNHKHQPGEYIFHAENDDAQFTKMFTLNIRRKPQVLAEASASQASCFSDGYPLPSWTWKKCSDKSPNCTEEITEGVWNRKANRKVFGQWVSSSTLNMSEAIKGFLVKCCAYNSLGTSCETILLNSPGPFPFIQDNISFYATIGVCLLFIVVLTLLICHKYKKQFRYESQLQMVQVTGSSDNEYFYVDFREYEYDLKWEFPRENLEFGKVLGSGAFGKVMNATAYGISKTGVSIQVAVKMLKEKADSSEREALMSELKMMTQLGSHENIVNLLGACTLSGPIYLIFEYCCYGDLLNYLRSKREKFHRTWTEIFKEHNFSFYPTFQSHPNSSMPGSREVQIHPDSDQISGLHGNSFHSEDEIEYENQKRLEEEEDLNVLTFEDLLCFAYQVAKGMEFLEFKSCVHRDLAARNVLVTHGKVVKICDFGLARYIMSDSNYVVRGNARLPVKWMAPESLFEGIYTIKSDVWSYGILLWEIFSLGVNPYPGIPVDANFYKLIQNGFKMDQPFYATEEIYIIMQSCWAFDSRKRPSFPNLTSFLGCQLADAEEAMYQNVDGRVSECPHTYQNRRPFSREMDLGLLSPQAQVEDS

[24] = AUC in BALB/c mouse at 1 mg/kg, iv by LC-MS/MS analysis; assay type: ADME, organism-based; set-up: dose 1 mg/kg, route intravenous; conditions: plasma
[25] = AUC in Sprague-Dawley rat at 1 mg/kg, iv by LC-MS/MS analysis; assay type: ADME, organism-based; set-up: dose 1 mg/kg, route intravenous; conditions: plasma
[26] = Apparent permeability across MDCK cells; assay type: ADME, cell-based, Canis lupus familiaris; conditions: dog
[27] = AUC in beagle dog at 5 mg/kg, po by LC-MS/MS analysis; assay type: ADME, organism-based, Canis lupus familiaris; set-up: dose 5 mg/kg, route oral; conditions: plasma
[28] = Volume of distribution at steady state in beagle dog at 1 mg/kg, iv by LC-MS/MS analysis; assay type: ADME, organism-based, Canis lupus familiaris; set-up: dose 1 mg/kg, route intravenous; conditions: in vivo
[29] = target: Dual specificity protein kinase CLK2 (Homo sapiens) (UniProt P49760); assay: Inhibition of CLK2 (unknown origin) at 0.1 uM
[30] = AUC in BALB/c mouse at 50 mg/kg, po by LC-MS/MS analysis; assay type: ADME, organism-based; set-up: dose 50 mg/kg, route oral; conditions: plasma
[31] = Oral bioavailability in beagle dog at 5 mg/kg by LC-MS/MS analysis; assay type: ADME, organism-based, Canis lupus familiaris; conditions: in vivo

Sequence of Dual specificity protein kinase CLK2 (Homo sapiens) (P49760 whole entry, looked up): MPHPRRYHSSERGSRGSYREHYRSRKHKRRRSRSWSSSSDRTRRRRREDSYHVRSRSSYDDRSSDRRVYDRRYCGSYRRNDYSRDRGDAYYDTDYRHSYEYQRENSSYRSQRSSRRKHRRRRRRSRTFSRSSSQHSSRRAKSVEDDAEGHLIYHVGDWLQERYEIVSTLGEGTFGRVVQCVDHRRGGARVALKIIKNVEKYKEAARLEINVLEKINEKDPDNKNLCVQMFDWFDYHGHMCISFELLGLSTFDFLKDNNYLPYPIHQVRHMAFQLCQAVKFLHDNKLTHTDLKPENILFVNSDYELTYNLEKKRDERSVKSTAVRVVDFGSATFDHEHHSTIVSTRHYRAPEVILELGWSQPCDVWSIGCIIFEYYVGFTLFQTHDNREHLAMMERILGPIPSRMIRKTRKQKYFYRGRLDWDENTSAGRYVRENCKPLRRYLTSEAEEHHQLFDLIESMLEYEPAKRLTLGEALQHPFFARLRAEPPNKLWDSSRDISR
Sequence of BDNF/NT-3 growth factors receptor (Homo sapiens) (Q16620 32-822 limits assumed): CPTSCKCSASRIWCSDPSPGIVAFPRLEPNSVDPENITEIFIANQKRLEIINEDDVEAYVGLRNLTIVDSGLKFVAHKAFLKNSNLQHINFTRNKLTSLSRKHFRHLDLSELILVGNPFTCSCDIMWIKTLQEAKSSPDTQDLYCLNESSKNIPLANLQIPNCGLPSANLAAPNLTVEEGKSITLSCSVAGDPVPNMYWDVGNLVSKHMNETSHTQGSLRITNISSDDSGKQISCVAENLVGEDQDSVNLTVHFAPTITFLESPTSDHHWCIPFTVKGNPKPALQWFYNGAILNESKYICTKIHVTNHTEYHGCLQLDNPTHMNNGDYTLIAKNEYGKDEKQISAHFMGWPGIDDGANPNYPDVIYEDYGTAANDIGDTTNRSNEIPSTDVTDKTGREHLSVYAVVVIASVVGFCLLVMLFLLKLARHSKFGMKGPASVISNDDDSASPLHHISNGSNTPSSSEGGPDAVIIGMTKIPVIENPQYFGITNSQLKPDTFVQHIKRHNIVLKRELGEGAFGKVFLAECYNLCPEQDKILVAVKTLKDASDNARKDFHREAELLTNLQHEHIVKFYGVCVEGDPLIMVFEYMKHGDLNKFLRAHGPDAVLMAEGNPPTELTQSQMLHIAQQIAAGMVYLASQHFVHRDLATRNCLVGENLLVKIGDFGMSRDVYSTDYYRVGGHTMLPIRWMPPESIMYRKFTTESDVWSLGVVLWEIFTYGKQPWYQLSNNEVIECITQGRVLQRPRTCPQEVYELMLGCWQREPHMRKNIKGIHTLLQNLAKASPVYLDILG
Sequence of NT-3 growth factor receptor (Homo sapiens) (Q16288 32-839 limits assumed): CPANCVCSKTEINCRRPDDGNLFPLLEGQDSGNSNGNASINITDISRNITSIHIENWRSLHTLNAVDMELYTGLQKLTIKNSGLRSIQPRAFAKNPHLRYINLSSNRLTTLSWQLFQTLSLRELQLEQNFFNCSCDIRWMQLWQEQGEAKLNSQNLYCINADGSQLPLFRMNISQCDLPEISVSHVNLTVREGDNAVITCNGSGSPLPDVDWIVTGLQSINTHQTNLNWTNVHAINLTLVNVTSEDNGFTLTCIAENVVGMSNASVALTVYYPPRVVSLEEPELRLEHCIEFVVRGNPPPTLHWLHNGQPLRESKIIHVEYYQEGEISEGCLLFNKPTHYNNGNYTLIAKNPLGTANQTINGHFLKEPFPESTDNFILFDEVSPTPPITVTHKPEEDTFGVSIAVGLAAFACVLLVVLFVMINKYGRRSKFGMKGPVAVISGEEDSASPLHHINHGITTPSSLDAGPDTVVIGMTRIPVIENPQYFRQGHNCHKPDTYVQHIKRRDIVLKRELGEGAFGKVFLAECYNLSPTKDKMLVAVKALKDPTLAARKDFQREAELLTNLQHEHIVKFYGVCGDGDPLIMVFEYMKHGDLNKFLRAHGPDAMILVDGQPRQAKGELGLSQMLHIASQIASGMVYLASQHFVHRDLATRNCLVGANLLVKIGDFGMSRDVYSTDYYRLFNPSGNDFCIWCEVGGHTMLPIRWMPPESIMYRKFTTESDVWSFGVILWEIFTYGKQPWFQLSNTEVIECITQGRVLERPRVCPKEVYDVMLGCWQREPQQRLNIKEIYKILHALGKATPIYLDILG
Sequence of High affinity nerve growth factor receptor (Homo sapiens) (P04629 33-796 limits assumed): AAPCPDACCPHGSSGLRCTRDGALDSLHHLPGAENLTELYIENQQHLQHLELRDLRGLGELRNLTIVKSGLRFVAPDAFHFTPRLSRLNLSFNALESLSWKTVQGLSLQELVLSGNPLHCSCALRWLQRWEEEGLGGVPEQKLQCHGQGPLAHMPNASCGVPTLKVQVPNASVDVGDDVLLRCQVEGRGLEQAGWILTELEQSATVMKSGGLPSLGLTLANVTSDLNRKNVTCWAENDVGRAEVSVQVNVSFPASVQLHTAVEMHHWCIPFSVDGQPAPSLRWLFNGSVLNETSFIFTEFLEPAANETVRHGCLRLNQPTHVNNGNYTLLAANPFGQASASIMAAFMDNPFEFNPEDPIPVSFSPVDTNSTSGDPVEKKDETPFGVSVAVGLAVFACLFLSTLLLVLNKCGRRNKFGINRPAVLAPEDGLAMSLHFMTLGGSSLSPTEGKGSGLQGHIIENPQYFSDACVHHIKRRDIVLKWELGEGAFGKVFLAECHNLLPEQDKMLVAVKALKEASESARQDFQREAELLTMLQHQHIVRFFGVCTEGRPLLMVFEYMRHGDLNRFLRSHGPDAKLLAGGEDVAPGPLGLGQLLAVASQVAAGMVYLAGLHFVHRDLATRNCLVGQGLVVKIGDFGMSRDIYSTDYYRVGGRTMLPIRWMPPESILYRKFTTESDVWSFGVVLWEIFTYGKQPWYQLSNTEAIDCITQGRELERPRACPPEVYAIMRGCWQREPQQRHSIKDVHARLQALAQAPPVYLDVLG

Vd [1]: 14 L/kg | fraction unbound [2]: 0.07 | clearance [3]: 21 mL/min/kg | half-life [4]: 5.4 h | AUC [5]: 1.1 µM·h | inhibition [6]: 76% | Vd [7]: 10 L/kg | clearance [8]: 70 mL/min/kg | inhibition [9]: 88% | logD at 20 min, 10000 µM [10]: 2 | half-life [11]: 3 h | inhibition [12]: 91% | Cmax [13]: 900 nM | solubility kinetic at 24 h, 10000 µM [14]: 68 µM (≈ 28.6 µg/mL) | inhibition [15]: 80% | clearance [16]: 40 mL/min/kg | bioavailability [17]: 40% | half-life [18]: 2.9 h | bioavailability [19]: 36% | Cmax [20]: 200 nM | Cmax [21]: 3800 nM | AUC [22]: 1.9 µM·h | inhibition [23]: 75% | AUC [24]: 1.5 µM·h | AUC [25]: 0.6 µM·h | Papp [26]: 4.6 ×10⁻⁶ cm/s | AUC [27]: 10 µM·h | Vd [28]: 6.7 L/kg | inhibition [29]: 93% | AUC [30]: 27 µM·h | bioavailability [31]: 100%
Compound: CN(C)CC[C@@H](c1ccccc1)n1cc(NC(=O)c2n[nH]c3c2CCC(C)(C)C3)cn1
